Source: paper PMC10784249 (Natural Products and Bioprospecting, 2024)

Experiments:
[1] = tested on: SH-SY5Y cells; assay: Cell viability of SH-SY5Y cells by MTT (toxicity check); conditions: undifferentiated SH-SY5Y, 70 µM of OA, 24 h
[2] = PAMPA-BBB parallel artificial membrane permeability assay; type: in vitro ADME, porcine; conditions: pig, pH 7.4, PBS:EtOH (70:30) as solvent, mean ± SD of 2 independent experiments, 2 h 30 min at 25 °C, read-out: Pe
Method: Filter PDVF membrane units (diameter 30 mm, pore size 0.45 μm) from Symta were used to filter the samples. A 96-well plate UV reader (Thermoscientific, Multiskan spectrum) was used for the UV measurements. […] These solutions were filtered. […] Then the donor plate was carefully put on the acceptor plate to form a “sandwich”, which was left undisturbed for 2 h and 30 min at 25 °C. […] During this time the compounds diffused from the donor plate through the brain lipid membrane into the acceptor plate. After incubation, the donor plate was removed. UV plate reader determined the concentration of compounds and commercial drugs in the acceptor and the donor wells. […] 10 quality control compounds (previously mentioned) of known BBB permeability were included in each experiment to validate the analysis set.

Structure (SMILES)	decrease of cell viability [1]	Papp at […] [2] [×10⁻⁶ cm/s]
C=C1[C@@H](O)[C@@H]2O[C@]3(CC[C@H](/C=C/[C@@H](C)[C@@H]4CC(C)=C[C@@]5(O[C@H](C[C@@](C)(O)C(=O)O)CC[C@H]5O)O4)O3)CC[C@H]2O[C@@H]1[C@@H](O)C[C@H](C)[C@H]1O[C@@]2(CCCCO2)CC[C@H]1C [OA, okadaic acid]	about 43%	
CN(C)CCCN1c2ccccc2Sc2ccccc21 [Promazine]		12 ± 0.9
CN1C(C(=O)Nc2ccccn2)=C(O)c2ccccc2S1(=O)=O [Piroxicam]		0.6 ± 0.8
